Tests used:
Rac1 or Rac2 = assay: Basal GTP-loading of Rac in the absence of P-Rex1 (liposome-based assay); type: biochemical, human; details: 10 µM
Excerpt: All small GTPases and GEFs used were human recombinant proteins. EE-Rac1, EE-Rac2, GST-Cdc42 or GST-RhoA were expressed in Sf9 cells by baculoviral transduction and purified using their epitope tag in their post-translationally prenylated form using Triton X-114 phase separation, essentially as previously described. Briefly, frozen pellets from a 1 litre culture of Sf9 cells transduced with high-titre baculovirus expressing the small GTPase were resuspended in ice-cold Sf9-cell lysis buffer 1 (1x PBS, 40 mM HEPES pH 7.5 at RT, 5 mM MgCl2, 10 mM EGTA, 300 µM GDP, 1 mM DTT, 200 µM PMSF, 20 μg/ml each of leupeptin, pepstatin A, aprotinin and antipain) and lysed by sonication. Triton X-114 was added (to 1% final concentration), and samples were ultracentrifuged at 118,000 × g for 50 min at 4°C. The supernatant was warmed at 37°C until cloudy (30–60 seconds) and centrifuged at 1300 × g for 2 min at 37°C. The upper phase containing non-lipid modified GTPase was discarded and replaced with ice-cold Sf9-cell lysis buffer. The warming/centrifugation steps were repeated twice and lipid-modified GTPase resuspended in ice-cold Sf9-cell lysis buffer 1 supplemented with Triton X-100 (1% final concentration), followed by ultracentrifugation at 118,000 × g for 50 min at 4°C. […] Protein concentration and purity was determined by coomassie staining of SDS-PAGE gels. […]

full-length P-Rex1 = biological target: T1, full-length P-Rex1 (Homo sapiens, UniProt Q8TCU6); assay: Liposome-based GEF activity assay, PIP3-stimulated full-length P-Rex1; type: biochemical; details: for effect on PIP3-stimulated Rac-GEF activity of full-length P-Rex1: 1, 5 and 10 µM, Rac1 or Rac2 as substrate
T1 construct: Full-length N-terminally EE-tagged P-Rex1, P-Rex2, the P-Rex1 DH and DHPH domains and the P-Rex2 DH domain were produced in Sf9 cells; made in house; host or cells: Sf9 cells (baculovirus)
Excerpt: All small GTPases and GEFs used were human recombinant proteins. EE-Rac1, EE-Rac2, GST-Cdc42 or GST-RhoA were expressed in Sf9 cells by baculoviral transduction and purified using their epitope tag in their post-translationally prenylated form using Triton X-114 phase separation, essentially as previously described. Briefly, frozen pellets from a 1 litre culture of Sf9 cells transduced with high-titre baculovirus expressing the small GTPase were resuspended in ice-cold Sf9-cell lysis buffer 1 (1x PBS, 40 mM HEPES pH 7.5 at RT, 5 mM MgCl2, 10 mM EGTA, 300 µM GDP, 1 mM DTT, 200 µM PMSF, 20 μg/ml each of leupeptin, pepstatin A, aprotinin and antipain) and lysed by sonication. Triton X-114 was added (to 1% final concentration), and samples were ultracentrifuged at 118,000 × g for 50 min at 4°C. The supernatant was warmed at 37°C until cloudy (30–60 seconds) and centrifuged at 1300 × g for 2 min at 37°C. The upper phase containing non-lipid modified GTPase was discarded and replaced with ice-cold Sf9-cell lysis buffer. The warming/centrifugation steps were repeated twice and lipid-modified GTPase resuspended in ice-cold Sf9-cell lysis buffer 1 supplemented with Triton X-100 (1% final concentration), followed by ultracentrifugation at 118,000 × g for 50 min at 4°C. For EE-tagged GTPases, supernatants were incubated with anti-EE antibody covalently coupled to protein G-Sepharose beads (anti-EE beads, Onyx Pharmaceuticals) and incubated with end-over-end rotation for 90 min on ice. Beads were washed 3 times in wash buffer (PBS, 5 mM MgCl2, 1 mM DTT, 10 μM GDP, 1 mM EGTA, 0.2% Triton X-100) and 5x in elution buffer (40 mM HEPES pH 7.5, 150 mM NaCl, 5 mM MgCl2, 1 mM EGTA, 1 mM DTT, 10 µM GDP). Protein was eluted by three incubations with elution buffer containing peptide Ac-EEYMPME (Activotec, Comberton, UK) and cholate (first 1%, then twice 0.5%) for 20 min on ice. For GST-tagged GTPases, supernatants were incubated with glutathione Sepharose beads and were eluted with glutathione in the same manner. Proteins were concentrated in a YM-10 Centricon (Millipore) at 5000 × g, 4°C. Protein concentration and purity was determined by coomassie staining of SDS-PAGE gels. For use in the mant-GTP assay, EE-Rac 1 was expressed in BL21 (DE3) bacteria (NEB, C25271), by induction with 0.5 mM IPTG overnight at 18°C. Bacterial pellets from 500 ml cultures were resuspended in 20 ml bacterial lysis buffer (40 mM Hepes, pH 7.5 at 4°C, 150 mM NaCl, 1% Triton X-100, 5 mM MgCl2, 1 mM DTT, 300 μM GDP, 200 µM PMSF, and 20 μg/ml each of leupeptin, pepstatin A, aprotinin and antipain) and were lysed by sonication. 5 μg/ml DNAse and 5 μg/ml RNAse were added and the lysate incubated on ice for 10 min. […]

T1 sequence (Q8TCU6 whole entry, the tested form may be a part): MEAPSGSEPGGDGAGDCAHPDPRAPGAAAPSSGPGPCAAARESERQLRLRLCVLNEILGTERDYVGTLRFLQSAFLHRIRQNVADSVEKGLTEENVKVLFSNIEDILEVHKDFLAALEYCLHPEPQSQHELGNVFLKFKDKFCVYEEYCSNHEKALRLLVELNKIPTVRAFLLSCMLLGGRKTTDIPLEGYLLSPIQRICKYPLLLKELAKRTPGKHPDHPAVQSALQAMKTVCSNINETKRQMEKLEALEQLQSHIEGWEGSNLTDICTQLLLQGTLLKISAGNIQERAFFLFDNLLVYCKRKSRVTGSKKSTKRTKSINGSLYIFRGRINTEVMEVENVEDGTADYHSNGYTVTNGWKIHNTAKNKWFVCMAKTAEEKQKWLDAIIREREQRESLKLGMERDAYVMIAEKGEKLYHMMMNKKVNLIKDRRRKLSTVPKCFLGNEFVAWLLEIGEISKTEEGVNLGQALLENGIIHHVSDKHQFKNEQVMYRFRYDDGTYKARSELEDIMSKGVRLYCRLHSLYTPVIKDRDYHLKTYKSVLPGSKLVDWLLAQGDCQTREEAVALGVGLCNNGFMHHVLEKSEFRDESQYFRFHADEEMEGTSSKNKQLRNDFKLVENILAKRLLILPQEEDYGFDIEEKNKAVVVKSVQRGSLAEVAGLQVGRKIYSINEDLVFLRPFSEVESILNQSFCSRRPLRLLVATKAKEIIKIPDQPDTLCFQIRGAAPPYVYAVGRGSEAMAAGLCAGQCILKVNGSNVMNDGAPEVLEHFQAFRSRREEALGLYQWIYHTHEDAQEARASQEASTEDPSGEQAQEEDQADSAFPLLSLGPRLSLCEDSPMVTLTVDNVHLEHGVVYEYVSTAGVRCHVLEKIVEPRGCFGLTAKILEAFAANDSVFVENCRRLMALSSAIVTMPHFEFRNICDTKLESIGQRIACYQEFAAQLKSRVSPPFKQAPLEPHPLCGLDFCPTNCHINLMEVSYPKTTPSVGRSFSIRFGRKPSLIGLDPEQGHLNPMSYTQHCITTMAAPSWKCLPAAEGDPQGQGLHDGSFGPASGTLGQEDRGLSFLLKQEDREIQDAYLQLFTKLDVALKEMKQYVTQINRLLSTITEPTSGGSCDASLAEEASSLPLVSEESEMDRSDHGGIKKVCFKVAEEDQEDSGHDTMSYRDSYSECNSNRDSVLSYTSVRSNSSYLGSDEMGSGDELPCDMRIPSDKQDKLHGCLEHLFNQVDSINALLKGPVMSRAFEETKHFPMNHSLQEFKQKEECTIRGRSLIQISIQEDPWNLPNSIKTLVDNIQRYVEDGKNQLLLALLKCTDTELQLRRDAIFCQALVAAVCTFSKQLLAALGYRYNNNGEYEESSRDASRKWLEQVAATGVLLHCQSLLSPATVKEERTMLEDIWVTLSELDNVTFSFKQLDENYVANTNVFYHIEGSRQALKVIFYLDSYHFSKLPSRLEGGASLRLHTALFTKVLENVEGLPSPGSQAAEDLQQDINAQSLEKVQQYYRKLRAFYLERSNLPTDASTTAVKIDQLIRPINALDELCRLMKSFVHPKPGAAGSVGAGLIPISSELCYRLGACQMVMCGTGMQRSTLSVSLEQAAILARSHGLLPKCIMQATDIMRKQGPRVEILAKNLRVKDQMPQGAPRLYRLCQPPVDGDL

Question: How did the “effect on basal GTP-loading of Rac1 or Rac2 in the absence of P-Rex1” value (Rac1 or Rac2) turn out when COc1ccc(-c2[nH]nc3c2C(c2ccc(-c4ccc(Cl)cc4)o2)C(C#N)=C(N)O3)cc1 (centres unmarked) [PREX-in1, 6-amino-4-[5-(4-chlorophenyl)-2-furyl]-3-(4-methoxyphenyl)-2,4-dihydropyrano[2,3-c]pyrazole-5-carbonitrile] was run?
Answer: neither compound affected

Question: What about the “reduction of PIP3-stimulated Rac-GEF activity of full-length P-Rex1” value (full-length P-Rex1; 10 µM, 50 nM P-Rex1, 100 nM prenylated Rac1, 10 µM PIP3) of the same molecule?
Answer: 56%

Question: What about the “effect on PIP3-stimulated Rac-GEF activity of full-length P-Rex1” value (full-length P-Rex1) of the same molecule?
Answer: inhibited

Question: What does the source list for CC1CCC(C(C)C)c2nn(C(=O)/C=C\c3ccccc3)c(-c3cccc4ccccc34)c21 (centres unmarked) [#10]?
Answer: effect on basal GTP-loading of Rac1 or Rac2 in the absence of P-Rex1 (Rac1 or Rac2): neither compound affected; effect on PIP3-stimulated Rac-GEF activity of full-length P-Rex1 (full-length P-Rex1): inhibited
